The structures appear in SMILES notation. Bounds are passed on as bounds.

A short description of data set [1]: Cellular cytotoxic activity, mock-infected CRFK cells, MTT assay. Format: cell-based, feline. To be noted: cat, read-out: CC50 (50% cytotoxic concentration). The method, then: (§1) The cytotoxicity of the compounds was determined in parallel to the experiments under assay 1 on mock-infected feline thymocytes respectively CRFK cells cultured in the presence or absence of different concentrations of the compound.
After 6 days of incubation cell viability of the CRFK cells was measured by using a colorimetric MTT assay. A solution of 3-(4,5-dimethylthiazol-2-yl)-2,5-diphenyltetrazolium bromide (MTT) in PBS at a final concentration of 0.5 mg/ml was added to each well. After 2 hours incubation at 37 C and 5% CO2, the medium containing the MTT was removed and the cells were lysed by addition of 200 μl DMSO to each well. Following 10 minutes incubation at room temperature on a rocking plate, the optical density (OD) values at […] were determined. The compound concentration that decreased the viability of 50% of the cells was defined as the 50% cytotoxic concentration (CC50).

A further data set relates to FIV strain Utrecht-113. Briefly: Inhibitory activity on FIV replication wild type, CRFK cells (FIV p24 ELISA). The data set is classed as cell-based. To be noted: Feline immunodeficiency virus, 144 h, FIV strain Utrecht-113, 6 days, read-out: EC50 (concentration required to reduce antigen production by 50%). Here is the method: (§2) The anti-FIV activity of the compounds was tested in primary feline thymocytes isolated form specific pathogen free cats, and in Crandell feline kidney (CRFK) cells.
Crandell Feline Kidney (CRFK) cells were maintained in DMEM (Dulbecco's Modified Eagle's Medium (Lonza) supplemented with, 10% inactivated fetal calf serum, antibiotics (100 IU/ml penicillin and 100 μg/ml streptomycin). Cells were seeded into a 96 well plate (5×10^4 cells per well) and pre-incubated with four-fold dilutions of the antiviral compound for 1 hours. The CrFK cells were washed with PBS DEAE 50 mg/l, inoculated with 100 TCID50 of FIV strain Utrecht-113 in the presence of the different concentrations of compound and subsequently incubated for 2 hours in a humidified incubator with a 5% CO2 atmosphere at 37° C. After 2 hours cells were washed twice in DMEM medium and new medium containing the different concentrations of compound were added. After incubation for 6 days the supernatant was harvested and the amount of virus within the supernatant determined using a FIV p24 ELISA. The 50% effective concentration (EC50) was defined as the concentration of the compound required to reduce the antigen production by 50% compared to untreated controls.
Background: An ELISA detects its analyte on a solid surface through an enzyme-linked reagent.

A further data set has as its system FIV strain Thymo-113. Briefly: Inhibitory activity on FIV replication wild type, feline thymocytes (FIV p24 ELISA). The data set is classed as cell-based. To be noted: Feline immunodeficiency virus, Thymocyte, 144 h, primary feline thymocytes, FIV strain Thymo-113, 6 days, read-out: EC50 (concentration required to reduce antigen production by 50%). The method, then: as §2
Feline thymocytes were maintained in complete Iscove's Modified Medium (Iscoves medium supplemented with GlutamaxI (Invitrogen/Gibco BRL), 10% inactivated fetal calf serum, antibiotics (100 IU/ml penicillin and 100 μg/ml streptomycin) 2-Mercapto-ethanol (50 μM) and 100 IU/ml human recombinant IL-2 (Chiron). Cells were seeded into a 96 well plate (5×10^4 cells per well) and pre-incubated with four-fold dilutions of the antiviral compound. Plates were incubated for 1 hour in a humidified incubator with a 5% CO2 atmosphere at 37° C. Subsequently, cells were inoculated with 100 TCID50 of FIV strain Thymo-113 in the presence of the different concentrations of compound. After 2 hours cells were washed twice in Iscove's medium and new medium containing the different concentrations of compound were added. After incubation for 6 days the supernatant was harvested and the amount of virus within the supernatant determined using a FIV p24 ELISA. The 50% effective concentration (EC50) was defined as the concentration of the compound required to reduce the antigen production by 50% compared to untreated controls.

The nature of data set [2]: Cellular cytotoxic activity, mock-infected feline thymocytes, trypan blue exclusion staining. Format: cell-based. To be noted: cat, read-out: CC50 (50% cytotoxic concentration). Here is the method:
as §1
Cytotoxicity on feline thymocytes was determined by trypan blue exclusion staining whereby the CC50 for compound (6) was measured as >10 nM.

Regarding `CN1c2nc(c(O)c3ncccc23)C(=O)NCc2ccc(F)cc2C(=O)NCCCCCS1(=O)=O` [Compound 6], in data set [1], the CC50 at 6 days is above 10 nM. For the same compound, the EC50 in the data set on FIV strain Utrecht-113 and with FIV strain Thymo-113 was 20 nM throughout. In data set [2], the CC50 was above 10 nM.

Source of the values: patent US20130296330A1, “MACROCYCLIC INTEGRASE INHIBITORS FOR USE IN THE TREATMENT OF FELINE IMMUNODEFICIENCY VIRUS” (ELANCO ANIMAL HEALTH IRELAND LIMITED, priority 2011, published 2013).
